Experimental data from patent US7704756B2, “Fluorogenic dyes” (Novartis Vaccines and Diagnostics, Inc., priority 2003, dated 2010).

Legend:
[1] = pH 7.5 buffer
Protocol: An experiment was conducted to test the ability of compound 12 to respond to reducing conditions. Two incubations were performed: in the first, a control incubation, a sample of compound 12 was added to pH 7.5 buffer. In a second incubation (+DTT), the same amount of compound 12 was added to pH 7.5 buffer and then DTT was added to a final concentration of 10 mM.

[2] = Reporter selectively fluorescent under reducing conditions (DTT versus control buffer); assay type: physicochemical; settings: compound 9 at 50 mM
Protocol: An experiment was conducted to determine the effect of reducing conditions versus non-reducing conditions on a reporter compound according to the invention (compound 9). Two incubations were conducted with compound 9 at a concentration of 50 mM. A control incubation was conducted which compared the same molar concentration of compound 9 in 10 mM Na phosphate at pH 7.5. A reducing reaction composition was made comprising the same buffer, and 10 mM dithiothreitol (DTT). […] For this example, synthesis of compound was conducted as previously described.

Row | Compound | colour of solution after addition of DTT (formation of free dichlorodithiofluorescein dye) ([1]; DTT 10 mM final, within one minute after addition) | colour of control incubation ([1]; no DTT) | mass spectrometry analysis of content of DTT containing reaction ([2]; 10 mM Na phosphate pH 7.5, 10 mM DTT) | fluorescence under reducing conditions ([2]; 10 mM Na phosphate pH 7.5, 10 mM dithiothreitol (DTT), after one minute at room temperature) | mass spectrometry analysis of content of control reaction ([2]; 10 mM Na phosphate pH 7.5, no DTT)
1 | 5(6)-Carboxy-2′,7′-dichloro-3′,6′-bis(2′″-trimethylammonium(ethanedithio))fluorescein [compound 12] | turned light blue | remained colorless |  |  | 
2 | CC(=O)O.CC(C)(CCSSCC[N+](C)(C)C)C(=O)Oc1ccc2c(c1)Oc1cc(OC(=O)C(C)(C)CCSSCC[N+](C)(C)C)ccc1C21OC(=O)c2ccccc21 [compound 9, Bis(4-(2′-(trimethylamino)ethanedithio)-2,2-dimethylbutyryl)carboxyfluorescein] |  |  | only fluorescein | strong green fluorescence | only compound 9
